What was measured:
[1] = biological target: T1, cholera toxin B subunit (Vibrio cholerae serotype O1, UniProt P01556); format: binding
[2] = biological target: T1, cholera toxin B subunit; conditions: cited from earlier work
[3] = biological target: T2, L-selectin (Homo sapiens, UniProt P14151); conditions: cited from earlier work
T2 sequence (P14151 39-372): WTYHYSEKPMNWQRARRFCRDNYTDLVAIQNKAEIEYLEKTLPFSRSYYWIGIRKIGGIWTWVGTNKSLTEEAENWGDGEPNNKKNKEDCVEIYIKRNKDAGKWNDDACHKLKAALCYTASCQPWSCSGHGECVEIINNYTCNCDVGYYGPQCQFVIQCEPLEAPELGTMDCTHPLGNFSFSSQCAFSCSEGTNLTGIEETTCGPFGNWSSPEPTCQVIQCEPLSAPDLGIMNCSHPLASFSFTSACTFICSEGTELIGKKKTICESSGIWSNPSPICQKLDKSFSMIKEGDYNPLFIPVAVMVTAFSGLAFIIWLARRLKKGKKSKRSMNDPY

[4] = biological target: T3, human α-thrombin (Homo sapiens, UniProt P00734); conditions: affinity label; cited from earlier work
T3 construct: screened against immobilized human α-thrombin; purchased Sigma Chemical Co

T1 sequence (P01556 22-124 limits assumed): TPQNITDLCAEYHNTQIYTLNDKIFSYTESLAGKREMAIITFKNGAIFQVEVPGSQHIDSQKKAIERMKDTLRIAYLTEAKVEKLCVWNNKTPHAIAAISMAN

Compound: COC(=O)CCCCCCCCOC1OC(COC2OC(CO)C(O)C(O)C2O)C(O)C(OC2OC(CO)C(O)C(O)C2O)C1O (stereo not drawn) [compound 3, αMan(1-3)[αMan(1-6)]βMan-OGr]
- break through (in words) [1]: broke through in the void volume

Compound: CC(=O)N[C@H]1[C@H](O[C@@H]2[C@H](O[C@]3(C(=O)O)C[C@H](O)[C@@H](NC(C)=O)[C@H]([C@H](O)[C@H](O)CO)O3)[C@@H](O)[C@H](O[C@H]3[C@H](O)[C@@H](O)[C@H](O)O[C@@H]3CO)O[C@@H]2CO)O[C@H](CO)[C@H](O)[C@@H]1O[C@@H]1O[C@H](CO)[C@H](O)[C@H](O)[C@H]1O [compound 7, GM1 oligosaccharide]
- Kd [2]: ~0.1 µM
- break through volume [1]: ~300 µL

Compound: CC(=O)NC1C(O)CC(OCCOC2OC(CO)C(O)C(OC3OC(CO)C(O)C(O)C3O)C2NC(C)=O)(C(=O)O)OC1C(O)C(O)CO (stereo not drawn) [compound 8, βGal(1-3)βGalNAc(1-)-OCH2CH2O-(-2)αNeu5Ac]
- break through time [1]: about 11 min

Compound: O=P(O)(O)O[C@H]1[C@H](OP(=O)(O)O)[C@@H](OP(=O)(O)O)[C@H](OP(=O)(O)O)[C@@H](OP(=O)(O)O)[C@H]1OP(=O)(O)O [phytic acid]
- Kd [3]: 1 µM

Compound: fPR-chloromethyl ketone
- Kd [4]: ~0.05 µM

From patent US20060228754A1 (priority 1998, published 2006)
